Among the data in patent publication US7211589B2, “Atisane compounds and use thereof” (Eisai R&D Management Co., Ltd., priority 2001, dated 2007) are Survival of cell values, retold here.

The subject of test [1] is cultured cerebral cortex cells. Put plainly: Effect on nitrogen monoxide (NO)-induced neurotoxicity of cultured cerebral cortex cell (trypan blue survival). The settings on record: test substance 10 μM simultaneously with S-nitrosocysteine 100 μM; percentage of living cells; sham 91.92, S-nitrosocysteine alone 17.30. The test is classed as cell-based. How it is done: Effect of Atisane Derivative on Nitrogen Monoxide (NO)-induced Neurotoxicity of Cultured Cerebral Cortex Cell
(1) After dissolving the compound according to the present invention (test compound) in a small amount of methanol, 2.0 mL serum-free normal medium (Eagle's MEM medium raw powder 9.4 g; NaHCO3 2.0 g; […]; glucose 1.0 g; and HEPES 2.38 g are dissolved in purified water so that the final volume is 1000 mL) was added to make the concentration at 10 μM. After mixing well by vortex, the sample was used for the following bioassay. (2) In Eagle liquid at 37° C., cultured cerebral cortex cells were incubated in the medium containing S-nitrosocysteine for 1 hour. At this time, the test sample (1) was treated simultaneously with S-nitrosocysteine. After incubating for another 1 hour, the culture was stained with 1.5% trypan blue solution for 10 minutes. After completion of the staining, cells were fixed in ice-cooled 10% neutral-buffered formalin solution, rinsed with saline, and numbers of living cells and dead cells were counted. The test was conducted using 5 cover slips for every drug treatment, and one group contained 5 cases. More than 200 cells were counted per one cover slip, and a percentage of number of living cells with respect to the total number of counted cells was calculated as survival. (3) Results

Test [2] has as its system cultured cerebral cortex cells. Put plainly: Effect on glutamate-induced neurotoxicity of cultured cerebral cortex cell (trypan blue survival). The settings on record: test substance 10 μM, 1 h pre-incubation, then glutamic acid 500 μM for 1 h; percentage of living (trypan blue unstained) cells; sham 88.79, glutamic acid alone 26.72. The test is classed as cell-based. Here is the method: Effect of Atisane Derivative on Glutamate-induced Neurotoxicity of Cultured Cerebral Cortex Cell
Effects of the compounds according to the present invention on survival of cells were studied in the following manners.
(1) After dissolving the compound according to the present invention (test compound) in a small amount of methanol, 2.0 mL serum-free normal medium (Eagle's MEM medium raw powder 9.4 g; NaHCO3 2.0 g; L-glutamine 0.29 g; glucose 1.0 g; and HEPES 2.38 g are dissolved in purified water so that the final volume is 1000 mL) was added so as to make the concentration at 10 μM. After mixing well by vortex, the sample was used for the following bioassay. (2) In Eagle liquid at 37° C., cultured cerebral cortex cells were incubated in the medium containing the test sample (1) for 1 hour, and glutamic acid was added to the medium. After incubating for another 1 hour, the culture was stained with 1.5% trypan blue solution for 10 minutes. […] Using this property, in the present test, the number of cells were counted while determining the cells not having stained by trypan blue as living cells and the cells […] as dead cells. […] More than 200 cells were counted per one cover slip, and a percentage of number of living cells with respect to the total number of counted cells was calculated as survival. […]

`C[S+]([O-])C[C@H]1[C@H]2CC[C@@]3(CC[C@H]4[C@@](C)(CCC[C@@]4(C)C(=O)O)[C@@H]3C2)[C@@H]1O` (mixture of isomers) [Serofendic acid isomers (1), (2) (approx. 1:2) mixture, ent-15β-Hydroxy-17-methylsulfinyl-16α-atisane-19-oic acid]: the values for the Survival of cell in test [1] and in test [2] were 76.02% and 65.92%, respectively.
